Experimental data reported in doi:10.1101/2024.08.25.609621 (bioRxiv, 2024).
pIC50, pKi: −log10 of the molar value. Where “and” joins values, the source holds several entries; their conditions need not be identical. Identical values can stand only once. Like-named read-outs stand apart in the source and are kept apart here.

Columns and labels:
[1] = molecular target: SARS-CoV-2 NSP3 macrodomain (Mac1) (Severe acute respiratory syndrome coronavirus 2, UniProt P0DTD1); assay: biochemical; type: binding
[2] = molecular target: SARS-CoV-2 NSP3 macrodomain (Mac1), P43 crystal form (Severe acute respiratory syndrome coronavirus 2, UniProt P0DTD1); type: binding; conditions: for 1-BDC: PanDDA background density correction; for Pandda run, overall: Modeled / Pandda run, overall: Hit: crystal soak; for Pandda run, overall: Hit: TRUE = ligand hit; for Total number of conformations: ligand conformations modeled in Mac1 crystal structure; for 2*(1-BDC) (%): occupancy estimate from PanDDA 1-BDC
[3] = Single dose, concentration 200 μM, read-out: SARS CoV-2 macrodomain HTRF assay: Average % competition
[4] = preliminary screen, compound at 200 μM, mean of 3-4 technical replicates, read-out: % competition in HTRF assay
[5] = ligand modeling in Mac1 crystal soak
[6] = dose-response, read-out: SARS CoV-2 macrodomain HTRF assay: IC50
[7] = dose-response, read-out: SARS CoV-2 macrodomain HTRF assay: Ki
[8] = from SARS CoV-2 macrodomain HTRF assay
[9] = Single dose, concentration 200 μM, read-out: Average % competition
[10] = stereoisomer(s) of ligand modeled in Mac1 crystal structure
[11] = ligand modeling in Mac1 crystal structure

For OC[C@@H]1C[C@H](F)CN1c1ncnc2[nH]ccc12 [AVI-609], the inhibition at 200 µM [1, 3] was 52%, the inhibition at 200 µM [1, 4] was 52% and the “Number of isomers bound” value [2, 5] was 1.

With OC[C@@H]1C[C@H](O)CN1c1ncnc2[nH]ccc12 [AVI-610] the pIC50 [1, 6] was 3.80, the pKi [1, 7] was 3.82 and the “Ligand efficiency (binding enery per heavy atom)” value [1, 8] was 0.31. The “Number of isomers bound” value [2, 5] was 1.

With NC(=O)C1(O)CCN(c2ncnc3[nH]ccc23)C1 (stereo not shown) [AVI-611] the inhibition at 200 µM [1, 9] was 30%, the inhibition at 200 µM [1, 4] was 30% and the “Number of isomers bound” value [2, 5] was 1. For the same compound, the Isomers modeled [2, 10] was “S,S”.

CCC1(O)CCN(c2ncnc3[nH]ccc23)C1 (stereo not shown) [AVI-612] was tested, and the inhibition at 200 µM [1, 9] was 22%, the inhibition at 200 µM [1, 4] was 22% and the “Number of isomers bound” value [2, 5] was 1.

O[C@@H]1CN(c2ncnc3[nH]ccc23)C[C@H]1F [AVI-616] was tested, and the inhibition at 200 µM [1, 9] was 15%, the inhibition at 200 µM [1, 4] was 15% and the “Number of isomers bound” value [2, 5] was 1.

For O[C@H]1COC[C@@H]1Nc1ncnc2[nH]ccc12 [AVI-1444, (3R,4S)-4-((7H-pyrrolo[2,3-d]pyrimidin-4-yl)amino)tetrahydrofuran-3-ol], the “Number of isomers bound” value [2, 5] was 1.

For CC(C)(O)[C@@H]1CCCN1c1ncnc2[nH]ccc12 [AVI-1445, (S)-2-(1-(7H-pyrrolo[2,3-d]pyrimidin-4-yl)pyrrolidin-2-yl)propan-2-ol], the “fold decrease in affinity compared to AVI-607” value ([1]; HTRF) was ~ 5 fold, the Hill slope ([1]; HTRF dose-response fit, Mac1) was 1.1 and the inhibition at 200 µM [1, 3] was 75%. For the same compound, the “SARS CoV-2 macrodomain HTRF assay: Hillslope” value ([1]; dose-response fit) was 1.6, the pKi [1, 7] was 4.00 and the “Ligand efficiency (binding enery per heavy atom)” value [1, 8] was 0.31. The inhibition at 200 µM [1, 4] was 75%, the pIC50 ([1]; read-out: HTRF IC50) was 3.96 and the 1-BDC [2] was 0.12. The “Pandda run, overall: Modeled” value ([2]; soak concentration 10 mM) was “TRUE”, the “Pandda run, overall: Hit” value ([2]; soak concentration 10 mM) was “TRUE” and the “Total number of conformations” value [2] was 1. The “Number of isomers bound” value [2, 5] was 1, the “2*(1-BDC) (%)” value [2] was 24% and the “X-ray crystallography: Binding site” value ([2]; site where the ligand is bound in the X-ray crystal structure) was “Adenosine”. For the same compound, the “PanDDA run, DMSO background map: 1-BDC” value ([2]; soak concentration 10 mM) was 0.12, the “PanDDA run, DMSO background map: Hit” value ([2]; soak concentration 10 mM) was “TRUE” and the “PanDDA run, TFA/DMSO background map: 1-BDC” value ([2]; soak concentration 10 mM) was 0.12. The “PanDDA run, TFA/DMSO background map: Hit” value ([2]; soak concentration 10 mM) was “TRUE”.

In the case of Cc1c[nH]c2ncnc(NCC3(O)CCC3)c12 [AVI-3571, 1-(((5-methyl-7H-pyrrolo[2,3-d]pyrimidin-4-yl)amino)methyl)cyclobutan-1-ol], the Hill slope ([1]; HTRF dose-response fit, Mac1) was 1.0, the “Ligand efficiency (binding enery per heavy atom)” value ([1]; SARS CoV-2 macrodomain HTRF assay) was 0.39 and the Hill slope ([1]; SARS CoV-2 macrodomain HTRF assay, dose-response) was 1.0. For the same compound, the pIC50 ([1]; SARS CoV-2 macrodomain HTRF assay, dose-response, read-out: IC50) was 4.82, the pKi ([1]; SARS CoV-2 macrodomain HTRF assay, dose-response, read-out: Ki) was 4.85 and the 1-BDC [2] was 0.15. The X-ray crystal structure ([2]; X-ray crystal structure determined (TRUE)) was “TRUE”, the “Pandda run, overall: Modeled” value ([2]; soak concentration 10 mM) was “TRUE” and the “Pandda run, overall: Hit” value ([2]; soak concentration 10 mM) was “TRUE”. The “Total number of conformations” value [2] was 2, the “Number of isomers bound” value [2, 5] was 1 and the “2*(1-BDC) (%)” value [2] was 30%. The Binding site ([2]; site of ligand in X-ray crystal structure) was “Adenosine”, the “PanDDA run, DMSO background map: 1-BDC” value ([2]; soak concentration 10 mM) was 0.15 and 0.2 and the “PanDDA run, DMSO background map: Hit” value ([2]; soak concentration 10 mM) was “TRUE”. For the same compound, the Isomers modeled [2, 10] was “achiral,achiral”.

With CCC(Nc1ncnc2[nH]ccc12)C(C)O (stereo not shown) [AVI-3635] the inhibition at 200 µM [1, 9] was 54%, the inhibition at 200 µM [1, 4] was 54% and the “PanDDA run, TFA/DMSO background map: 1-BDC” value ([2]; crystal soak 10 mM) was 0.08. For the same compound, the “PanDDA run, TFA/DMSO background map: Hit” value ([2]; crystal soak 10 mM) was “TRUE”, the “Number of isomers bound” value [2, 5] was 1 and the “PanDDA run, TFA/DMSO background map: 1-BDC” value ([2]; soak concentration 10 mM) was 0.11. For the same compound, the “PanDDA run, TFA/DMSO background map: Hit” value ([2]; soak concentration 10 mM) was “TRUE”.

OCC(CC(F)(F)F)Nc1ncnc2[nH]ccc12 (stereo not shown) [AVI-3637] was tested, and the inhibition at 200 µM [1, 9] was 50%, the inhibition at 200 µM [1, 4] was 50% and the “Number of isomers bound” value [2, 5] was 1. For the same compound, the “PanDDA run, TFA/DMSO background map: 1-BDC” value ([2]; soak concentration 10 mM) was 0.21 and the “PanDDA run, TFA/DMSO background map: Hit” value ([2]; soak concentration 10 mM) was “TRUE”.

With OC1(CNc2ncnc3[nH]ccc23)CCC2(CC1)OCCO2 [AVI-4315] the pIC50 [1, 6] was 3.68, the pKi [1, 7] was 3.70 and the “Ligand efficiency (binding enery per heavy atom)” value [1, 8] was 0.23.

For CC(Nc1ncnc2[nH]ccc12)C1(O)CCCCC1 (stereo not shown) [AVI-4321], the pIC50 [1, 6] was 4.32, the pKi [1, 7] was 4.35 and the “Ligand efficiency (binding enery per heavy atom)” value [1, 8] was 0.32.

Cc1c[nH]c2ncnc(NCC3(O)CCC(O)CC3)c12 (stereo not shown) [AVI-4329] was tested, and the “Number of isomers bound” value [2, 11] was 1 and the Isomers modeled ([2]; stereoisomer(s) modeled in Mac1 crystal structure) was “rr,rr”.

In the case of Cc1c[nH]c2ncnc(NCC3(O)CCC(C)(C)CC3)c12 [AVI-4330], the pIC50 [1, 6] was 3.19, the pKi [1, 7] was 3.21 and the “Ligand efficiency (binding enery per heavy atom)” value [1, 8] was 0.21.

Work on OCC1(Nc2ncnc3[nH]ccc23)COC1 [AVI-5649] yielded an inhibition at 200 µM [1, 9] of under 10% and an inhibition at 200 µM [1, 4] of under 10%.

CC(C)(C)C1CCCN1c1ncnc2[nH]ccc12 (stereo not shown) [AVI-6000] was tested, and the “Number of isomers bound” value [2, 11] was 1.

Nc1cccc(CSC2CCc3ccccc32)n1 (stereo not shown) [AVI-6015] gave a pIC50 ([1]; read-out: IC50) of under 3.00.

Work on CC(O)C1CCN(c2cc(N3CCC(c4ccccc4)CC3C)ncn2)C1 (stereo not shown) [AVI-6016] yielded a pIC50 ([1]; read-out: IC50) of under 3.00.

Nc1ncnc(N2CCCCC3(CCC3)C2)c1Cl [AVI-6017] gave a pIC50 ([1]; read-out: IC50) of under 3.00.

Compound Cc1ccc(C(=O)O)cc1NCc1ccc2nsnc2c1 [AVI-6018] has a pIC50 ([1]; read-out: IC50) of under 3.00.

With O=C1OC(CSC2CCC(O)C2)CN1C1CCCCC1 (stereo not shown) [AVI-6019] the pIC50 ([1]; read-out: IC50) was under 3.00.

Cn1c(=O)[nH]c(=O)c2c1nc(Br)n2CC(=O)C1CCC(F)(F)CC1 [AVI-6020] was tested, and the pIC50 ([1]; read-out: IC50) was under 3.00.
